One data set concerns comedos. Put plainly: Comedolytic activity on tar-induced comedos of rabbit ears. It counts as in vivo, albino rabbits. To be noted: Oryctolagus cuniculus, 336 h, topical, read-out: Comedolytic activity in % (decrease in number of comedos vs control ear). As for the experimental part: The development of comedos was induced by one topical application of 0.5 ml per day, onto both ears of albino rabbits, of 5% of tar in Polyan® (ester of lanolin alcohol and linolenic acid, produced by Amerchol Corp., U.S.A.), the application being carried out on 5 successive days per week over a period of two weeks. Thereafter, the test substances in ethanol/propylene glycol (70:30, v/v, 0.5 ml) were applied topically onto the inner skin area of one ear of each rabbit once per day on 5 successive days per week over a period of two weeks. The second ear of each animal served as an untreated control.
After further treatment for 72 hours with the test substance, the rabbits were sacrificed. A skin sample of about 6 cm^2 was taken from each auricle just outside the oratory passage, and this sample was divided into sections of about 1 cm^2. These pieces of skin were immersed for 2 minutes in warm water at 60° C. The epidermis was carefully peeled off using the flat end of a spatula and a small forceps, and was placed, dermal side up, on the slide. After drying in air overnight, the test strips were assessed under a stereomicroscope. […] The comedos were recognizable as discrete, cylindrical to round keratose particles which were of similar appearance and whose size and number were proportional to the activity of the test substance. The comedolytic effect was determined as the decrease in the number of comedos, in %, compared with the control ear (cf. Table 2).

Data set [1] relates to utriculi in the Rhino mouse. The experiment in a line: Reduction of the number of utriculi in the Rhino mouse model. It counts as in vivo, Rhino mice. To be noted: for inhibition in vivo at 0.1 % / inhibition in vivo at 0.2 %: read-out: Decrease in % (number of utriculi / cysts).
Another data set concerns tracheal epithelium. Put plainly: Elimination of keratinization in tracheal cultures (antitumor action). The settings on record: Mesocricetus auratus, 240 h. It counts as cell-based, hamster. An excerpt:
The test model is used to determine the intrinsic property of the novel compounds of increasing the differentiation of epithelial cells. The great significance of this screening method in predicting the potential use of a new retinoid for the prevention of tumors in epithelial tissue is generally recognized. Moreover, it is known that every in vitro test system has disadvantages in respect of the prediction of in vivo activity. Apart from these basic restrictions, tracheal cell cultures are one of the most useful methods of determining the biological activity of novel retinoids.
The ability of the test substances to eliminate keratinization in a defined in vitro system was determined. Tracheae of hamsters at a very early stage of vitamin A deficiency were used for culture. […] Their average weight was from 47 to 52 g. The tracheal epithelium was in general slightly columnar or pavement-like and had only isolated areas of squamous metaplasia. Each trachea was opened along the membrane-like dorsal wall, from the larynx to the carina, and cultured in a serum-free medium (CMRL-1066 supplemented by 1.0 μg/ml of crystalline bovine insulin, 0.1 μg/ml of hydrocortisone hemisuccinate, 2mM of glutamine, 100 units/ml of penicillin and 100 μg/ml of streptomycin). The cultures were aerated with a mixture of 50% of oxygen, 45% of nitrogen and 5% of carbon dioxide, and the culture dishes were shaken gently to bring the tracheae into contact with the gas and the culture medium. All tracheae were initially kept for 3 days in the culture medium without the addition of retinoid. After this period, some tracheae were removed. […] The remaining tracheae were divided into groups, which were then treated with the following additives:
(a) The test substance dissolved in spectroscopically pure dimethylsulfoxide (the final concentration of dimethylsulfoxide in the culture medium was never greater than 0.1%).
(b) An equivalent amount of dimethylsulfoxide without a further additive.
The nutrient medium was changed three times per week. After culture for 10 days, the remaining tracheae were worked up by being fixed in 10% strength buffered formaldehyde solution and embedded in paraffin. […] Dose-effect curves of the novel compounds were recorded. Table 1 below gives the extrapolated molar doses which suppress keratinization in half the cultures (ED 50%).

Data set [2] concerns white male New Zealand rabbits. The settings on record: rabbit, in vivo. As for the experimental part: 5. The toleration of the test substances after topical administration was determined in experiments with 6 white male New Zealand rabbits in each case. In the case of each test animal, an area of about 6 cm^2 on the back was shaved. The test substances were dissolved in ethanol/propylene glycol (70:30, v/v), and 0.2 ml of this solution was applied with an automatic micropipette on 9 successive days by carefully rubbing the solution into a particular point twice daily at 6-hour intervals.
Before each application in the morning, all test areas were assessed subjectively in respect of erythemas and scaling, a numerical scale from 0 to 3 being employed (0=no reaction, 1=mild, 2=moderate and 3=severe). The average erythema formation and scaling gives the relative irritant level of the test substances in comparison with vitamin A acid.

Setting [3] is: concentration 0.1%, rabbit ear, two weeks.
Setting [4] is: concentration 0.1%, Rhino mouse.
[5] abbreviates: concentration 0.2%, Rhino mouse.
[6] abbreviates: hamster tracheal culture, 10 days, serum-free, extrapolated from dose-effect curves, read-out: ED50 (molar dose which suppresses keratinization in half the cultures) (converted).

SMILES strings stand for the structures. Like-named read-outs stand apart in the source and are kept apart here.

With `C/C(=C/c1ccc(C(=O)O)cc1)c1cc2c(cc1C)C(C)(C)CCC2(C)C` [Example 10, Z4-[2-methyl-2-(1,1,4,4,6-pentamethyl-1,2,3,4-tetrahydronaphth-7-yl)-vinyl]-benzoic acid], the inhibition in vivo at 0.1 % in the data set on comedos (setting [3]) was 31%; in data set [1] (setting [4]), 49%.

As for `CCCCCCCCc1cc2c(cc1/C(C)=C/c1ccc(C(=O)O)cc1)C(C)(C)C(C)C2(C)C` (centres unmarked) [Example 24, E4-[2-methyl-2-(1,1,2,3,3-pentamethyl-5-n-octyl-indan-6-yl)-vinyl]-benzoic acid], the “Decrease in % (number of utriculi / cysts)” value in data set [1] (setting [5]) stood at 42%.

Regarding `C/C(=C\c1ccc(C(=O)O)cc1)c1cc2c(cc1CCC(C)C)C(C)(C)C(C)C2(C)C` (centres unmarked) [Example 25, E4-[2-methyl-2-(1,1,2,3,3-pentamethyl-5-(3-methylbutyl)-indan-6-yl)-vinyl]-benzoic acid], the inhibition in vivo at 0.2 % in data set [1] (setting [5]) came out at 60%.

With `CCCCCCCCc1cc2c(cc1/C(C)=C/c1ccc(C(=O)O)cc1)C(C)(C)CCC2(C)C` [Example 15, E4-[2-methyl-2-(1,1,4,4-tetramethyl-6-n-octyl-1,2,3,4-tetrahydronaphth-7-yl)-vinyl]-benzoic acid], the inhibition in vivo at 0.1 % (in the data set on comedos (setting [3]); in data set [1] (setting [4])) was 59% each time.

As for `CCOC(=O)c1ccc(/C=C(\C)c2cc3c(cc2CC(C)C)C(C)(C)CCC3(C)C)cc1` [Example 19, ethyl E4-[2-methyl-2-(1,1,4,4-tetramethyl-6-(2-methylpropyl)-1,2,3,4-tetrahydronaphth-7-yl)-vinyl]-benzoate], the inhibition in vivo at 0.1 % in data set [1] (setting [4]) was 12%.

On to `C/C(=C/c1ccc(C(=O)O)cc1)c1cc2c(cc1CC(C)C)C(C)(C)CCC2(C)C` [Example 17, Z4-[2-methyl-2-(1,1,4,4-tetramethyl-6-(2-methylpropyl)-1,2,3,4-tetrahydronaphth-7-yl)-vinyl]-benzoic acid], for which the inhibition in vivo at 0.2 % with comedos (concentration 0.2%, rabbit ear, two weeks) amounted to 56%; in data set [1] (setting [5]) it was 62%.

Take `COC(=O)c1ccc(/C=C(\C)c2cc3c(cc2CC(C)C)C(C)(C)CCC3(C)C)cc1` [Example 20, methyl E4-[2-methyl-2-(1,4,4-tetramethyl-6-(2-methylpropyl)-1,2,3,4-tetrahydronaphth-7-yl)-vinyl]-benzoate]: the inhibition in vivo at 0.1 % in data set [1] (setting [4]) stood at 6%.

In the case of `C/C(=C\c1ccc(C(=O)Nc2ccc(O)cc2)cc1)c1ccc2c(c1)C(C)(C)CCC2(C)C` [Example 31, E-4-[2-methyl-2-(1,1,4,4-tetramethyl-1,2,3,4-tetrahydronaphth-7-yl)-vinyl]-benzoic acid 4-hydroxyanilide], in the data set with tracheal epithelium (setting [6]), the IC50 is 3 pM.

In the case of `CCc1cc2c(cc1/C(C)=C/c1ccc(C(=O)O)cc1)C(C)(C)CCC2(C)C` [Example 5, E4-[2-methyl-2-(1,1,4,4-tetramethyl-6-ethyl-1,2,3,4-tetrahydronaphth-7-yl)-vinyl]-benzoic acid], the inhibition in vivo at 0.1 % in the data set on comedos (setting [3]) turned out to be 54%. In addition, in data set [1] (setting [4]), the inhibition in vivo at 0.1 % was found to be 69%. In data set [2], this compound yielded an Erythema of 2.0 and a Scaling of 1.7.

Regarding `C/C(=C\c1ccc(C(=O)O)cc1)c1cc2c(cc1CC(C)C)C(C)(C)CCC2(C)C` [Example 8, E4-[2-methyl-2-(1,1,4,4-tetra-methyl-6-(2-methylpropyl)-1,2,3,4-tetrahydronaphth-7-yl)-vinyl]-benzoic acid], the inhibition in vivo at 0.1 % in the data set on comedos (setting [3]) was determined as 62%. The inhibition in vivo at 0.1 % in data set [1] (setting [4]) was 52%. Besides, in data set [2], the Erythema is listed as 1.4 and the Scaling is recorded as 1.0.

Consider `C/C(=C\c1ccc(C(=O)O)cc1)c1cc2c(cc1CCC(C)C)C(C)(C)CCC2(C)C` [Example 23, E4-[2-methyl-2-(1,1,4,4-tetra-methyl-6-(3-methylbutyl)-1,2,3,4-tetrahydronaphth-7-yl)-vinyl]-benzoic acid], for which, in data set [1] (setting [5]), the inhibition in vivo at 0.2 % is 62%.

`CCOC(=O)c1ccc(/C=C(\C)c2cc3c(cc2C(C)C)C(C)(C)CCC3(C)C)cc1` [Example 6, Ethyl E4-[2-methyl-2-(1,1,4,4-tetramethyl-6-isopropyl-1,2,3,4-tetrahydronaphth-7-yl)-vinyl]-benzoate]: the inhibition in vivo at 0.1 % in the data set on comedos (setting [3]) was determined as 68%; in data set [1] (setting [4]), 59%.

For the compound `C/C(=C\c1ccc(C(=O)O)cc1)c1cc2c(cc1CC(C)C)C(C)(C)C(C)C2(C)C` (centres unmarked) [Example 18, E4-[2-methyl-2-(1,1,2,3,3-pentamethyl-5-(2-methylpropyl)-indan-6-yl)-vinyl]-benzoic acid], the inhibition in vivo at 0.2 % in data set [1] (setting [5]) is 42%.

With `CC1=C(/C=C/C(C)=C/C=C/C(C)=C/C(=O)O)C(C)(C)CCC1` [Vitamin A acid, reference compound], in the data set on tracheal epithelium (read-out: ED50 (molar dose which suppresses keratinization in half the cultures)), the IC50 was 10 pM. Besides, the inhibition in vivo at 0.1 % in the data set on comedos was 67%; in data set [1] (Mus musculus), 60%. Moreover, the Erythema in data set [2] stood at 3.0. Moreover, the Scaling in data set [2] is on record as 3.0.

With `C/C(=C\c1ccc(C(=O)Nc2ccc(O)cc2)cc1)c1ccc2c(c1)C(C)(C)C(C)C2(C)C` (centres unmarked) [Example 32, E-4-[2-methyl-2-(1,1,2,3,3-pentamethylindan-6-yl)-vinyl]-benzoic acid 4-ydroxyanilide], in the data set with tracheal epithelium (setting [6]), the IC50 is 1 pM.

Consider `C/C(=C\c1ccc(C(=O)O)cc1)c1cc2c(cc1C(C)C)C(C)(C)CCC2(C)C` [Example 7, E4-[2-methyl-2-(1,1,4,4-tetramethyl-6-isopropyl-1,2,3,4-tetrahydronaphth-7-yl)-vinyl]benzoic acid], for which, in the data set on tracheal epithelium (setting [6]), the IC50 was 10 pM. Further, the inhibition in vivo at 0.1 % in the data set with comedos (setting [3]) turned out to be 59%. For the same compound, in data set [1] (setting [4]), the inhibition in vivo at 0.1 % was 62%. In data set [2], this compound gave an Erythema of 3.0 and a Scaling of 3.0.

`CCOC(=O)c1ccc(/C=C(\C)c2cc3c(cc2C)C(C)(C)CCC3(C)C)cc1` [Example 1, Ethyl E-4-[2-methyl-2-(1,1,4,4,6-pentamethyl-1,2,3,4-tetrahydronaphth-7-yl)-vinyl]-benzoate]: the results for the inhibition in vivo at 0.1 % (in the data set on comedos (setting [3]); in data set [1] (setting [4])) were 75% and 65%, respectively.

Regarding `CCCCc1cc2c(cc1/C(C)=C/c1ccc(C(=O)O)cc1)C(C)(C)CCC2(C)C` [Example 14, E4-[2-methyl-2-(1,1,4,4-tetramethyl-6-n-butyl-1,2,3,4-tetrahydronaphth-7-yl)-vinyl]-benzoic acid], the results for the inhibition in vivo at 0.1 % (in the data set with comedos (setting [3]); in data set [1] (setting [4])) were 79% and 64%, respectively.

In the case of `C/C(=C\c1ccc(C(=O)Nc2nnn[nH]2)cc1)c1ccc2c(c1)C(C)(C)C(C)C2(C)C` (centres unmarked) [Example 40, E-4-[2-methyl-2-(1,1,2,3,3,- pentamethylindan-6-yl)-vinyl]-N(tetrazol-5-yl)-benzamide], in the data set with tracheal epithelium (setting [6]), the IC50 was 1 pM.

Consider `CCCc1cc2c(cc1/C(C)=C/c1ccc(C(=O)O)cc1)C(C)(C)CCC2(C)C` [Example 11, E4-[2-methyl-2-(1,1,4,4-tetramethyl-6-propyl-1,2,3,4-tetrahydronaphth-7-yl)-vinyl]-benzoic acid], for which the inhibition in vivo at 0.1 % stood at 40% in the data set on comedos (setting [3]) and 59% in data set [1] (setting [4]).

These data come from patent US4578498A, “Phenylethylene derivatives and their use as drugs” (BASF Aktiengesellschaft, priority 1982, dated 1986).
